US20150011566A1, “N-PHENYLPIPERAZINE DERIVATIVES THAT ARE ANTAGONISTS OF A1A, A1D ADRENOCEPTORS AND 5-HT1A RECEPTORS FOR THE TREATMENT OF BENIGN PROSTATE HYPERPLASIA, PHARMACEUTICAL COMPOSITIONS CONTAINING THE SAME” (UNIVERSIDADE FEDERAL DO RIO DE JANEIRO-UFRJ, priority 2012, published 2015)
Counter-ions that a name gives are not always drawn. Marks after values point to notes of the source that are not given here.

What was measured:
[1] = molecular target: T1, 5-HT1A receptors (Homo sapiens, UniProt P08908); experiment: Cell proliferation in vitro, DU-145 cells stimulated with 5-HT (MTT); format: cell-based; conditions: 48 h
T1 construct: endogenous in cells; host or cells: DU-145
T1 sequence (P08908 1-422): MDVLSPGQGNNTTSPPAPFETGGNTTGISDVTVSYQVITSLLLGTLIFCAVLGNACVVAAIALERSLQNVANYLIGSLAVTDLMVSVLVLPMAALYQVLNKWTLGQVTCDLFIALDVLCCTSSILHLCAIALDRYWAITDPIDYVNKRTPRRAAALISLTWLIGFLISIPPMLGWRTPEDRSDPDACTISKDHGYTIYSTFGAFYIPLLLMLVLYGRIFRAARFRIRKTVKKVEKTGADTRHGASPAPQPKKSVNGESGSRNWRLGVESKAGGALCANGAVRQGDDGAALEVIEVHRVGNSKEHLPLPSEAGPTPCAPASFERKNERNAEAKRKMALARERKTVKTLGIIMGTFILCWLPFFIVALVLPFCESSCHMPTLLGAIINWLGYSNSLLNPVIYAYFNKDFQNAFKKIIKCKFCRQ
Method: (§1) Human prostate cancer cells (DU-145) were cultured in medium (RPMI 1640) until confluence. Then the cells were dissociated, plated (5×10^3 cells/well) and maintained in medium free of fetal bovine serum for 24 hours. […] Cell proliferation was assessed by using the MTT technique (MOSMANN, T. Immunol Methods. 16; 65 (1-2):55-63, 1983).

[2] = molecular target: T2, 5-HT1A receptors (Rattus norvegicus, UniProt P19327); experiment: Binding of [3H]p-MPPF with GTP to 5-HT1A receptors; intrinsic activity (Ki low/Ki high); conditions: Table 13; from Ki low/Ki high
T2 construct: Intrinsic Activity at Native 5-HT1A Receptors; from tissue; host or cells: rat hippocampus membranes
T2 sequence (P19327 1-422): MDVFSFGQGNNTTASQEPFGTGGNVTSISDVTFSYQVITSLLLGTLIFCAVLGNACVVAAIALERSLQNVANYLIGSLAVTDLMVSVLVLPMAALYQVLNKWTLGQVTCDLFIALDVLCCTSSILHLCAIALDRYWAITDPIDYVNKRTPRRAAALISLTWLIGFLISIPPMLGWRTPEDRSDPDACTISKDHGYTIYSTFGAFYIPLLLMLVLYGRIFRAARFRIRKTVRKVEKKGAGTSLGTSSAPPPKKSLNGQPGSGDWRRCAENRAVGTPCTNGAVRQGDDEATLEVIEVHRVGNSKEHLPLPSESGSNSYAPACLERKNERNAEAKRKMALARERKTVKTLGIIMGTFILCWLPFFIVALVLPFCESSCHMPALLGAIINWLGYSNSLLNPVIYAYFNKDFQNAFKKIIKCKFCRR
Method: Membrane preparations of rat hippocampus according to previously described by HALL et al (1985) and PEROUTKA (1986) were performed. The homogenization and centrifugation steps were performed identically to that described above for receptors α2A and 5-HT2A receptors.
The binding assays for the 5-HT1A receptors were performed as described previously in the literature and previously standardized in the laboratory through saturation experiments. […] (solvent for dilution of LDT's) for the determination of total binding, or 50 μL non-radioative serotonin at 10 μM to determine the non-specific binding (final volume of 500 μL). Assays were performed in triplicate. […] Assays were performed in triplicate.
After the incubation period, the reaction was stopped by adding 4 ml of ice-cold solution containing 5 mM Tris (pH 7.4), followed by vacuum filtration on glass fiber filter (GMF 3, Filtrak®) previously soaked with solution 0.5% polyethylenoimine. The filters were washed three times with 4 mL of ice-cold solution containing 5 mM Tris (pH 7.4) under vacuum to remove all free radioligand. Then the filters were dried and placed in vials containing 5 ml scintillation fluid (composition: 4% PPO, 0.1% POPOP w/p in toluene). The radioactivity retained on the filters was then determined in a liquid scintillation counter (Packard Tri-Carb 1600 TR). […] For these receptors were also determined the […] and Ki parameters.
The GTP presence displaces the GPCR to a state of low affinity (Lahti et al, 1992). The intrinsic activity of a substance can be estimated using GPCR agonist or antagonist radioligand appropriate to define the affinity of the substance in the state of high and low affinity receptor, respectively.

[3] = molecular target: T3, α1D adrenoceptors (Rattus norvegicus, UniProt P23944); experiment: Phenylephrine-induced contraction inhibition in rat aorta (isometric contraction, Schild KB); format: cell-based; conditions: ratio of EC50 in presence and absence of test substance, 10 nM
T3 construct: the rat thoracic aorta corresponds to a tissue expressing mainly α1D-adrenoceptors; from tissue; host or cells: rat thoracic aorta rings
T3 sequence (P23944 1-561): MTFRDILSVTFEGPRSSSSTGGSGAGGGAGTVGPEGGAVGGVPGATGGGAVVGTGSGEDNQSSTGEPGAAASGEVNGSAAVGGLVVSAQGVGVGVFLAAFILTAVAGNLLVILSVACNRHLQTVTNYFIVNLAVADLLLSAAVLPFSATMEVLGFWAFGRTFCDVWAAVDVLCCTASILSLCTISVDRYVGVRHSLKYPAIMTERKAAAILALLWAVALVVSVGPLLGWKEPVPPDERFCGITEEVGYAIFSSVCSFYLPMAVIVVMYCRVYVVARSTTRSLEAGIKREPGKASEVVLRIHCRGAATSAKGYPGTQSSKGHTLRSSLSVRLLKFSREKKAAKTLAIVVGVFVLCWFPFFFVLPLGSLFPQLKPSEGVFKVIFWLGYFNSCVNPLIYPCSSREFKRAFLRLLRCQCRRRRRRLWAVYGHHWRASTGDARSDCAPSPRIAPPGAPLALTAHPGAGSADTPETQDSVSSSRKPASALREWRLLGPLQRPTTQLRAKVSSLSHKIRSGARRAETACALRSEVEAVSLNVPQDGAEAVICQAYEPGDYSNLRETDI
Method: Isometric contraction assays were performed using Male Wistar rats, aged 2.5-3 months euthanized as described above. The thoracic aorta (tissue enriched in functional α1D adrenergic receptors) was removed, free from adjacent connective and adipose tissues cut in 3 mm segments. […] The aort segments were then subjected to a preload of 20 mN per 60 minutes. After recovery of tissues maintained for 1 hour at rest, it was performed a contraction induced by phenylephrine (PE) 1 μM (α1 adrenergic receptors selective agonist). In this plateau contraction, in order to promote endothelium-dependent relaxation resulting from the activation of the enzyme endothelial nitric oxide synthase (eNOS) and subsequent release of nitric oxide (NO), acetylcholine 1 μM was added. Rings that relaxed at least 80% were considered to have intact endothelium, were used.
Then the preparation was washed and allowed to stand for 1 hour in order to recover the tissue. Then it was performed cumulative curves to phenylephrine (10^−9 to 10^−5 M) in the presence of propranolol 1 μM (β-adrenoceptor blocker receptors) before and after incubation for 1 hour of the LDT's at 10 or 50 nM. In parallel, a temporal control was performed to rule out any artifacts on the measured contraction, where was added only the vehicle (ultrapure water Milli Q®) instead of the substance to be tested. Strictly following the same protocol as the other tanks wherein it was added the LDT's.
The data were scanned in MacLab 8S system connected to the isometric tension transducer Grass FT-03, which recorded the voltage variation in milinewtons (mN) generated throughout the analysis. The digitized data were then analyzed by Chart 3.4/s software program (MacLab, Inc., USA). In the pharmacological screening process, the initial concentration of the used LDT's was 50 nM, which is considered as cut concentration, i.e., substances that have no effect at this concentration would not investigated in this test. […] The ratio of the EC50 value in these two conditions (with and without LDT) matches the third parameter, called “concentration ratio” (or RC).
log(CR−1)=log [B]−log KB (Equation 1)
Where CR=concentration ratio (EC′50/EC50); [B]=‘B’ antagonist concentration; KB=equilibrium dissociation constant of the antagonist ‘B’.
With this in view, the functional tests of contraction in isolated organ model were performed using these tissues. […] Similarly, targeting to rule out any artifacts on the measured contraction, a time control was performed where only the vehicle was added (ultrapure Mili Q® water) in place of the substance to be tested, strictly following the same protocol as the other vats were added to the LDT's (FIG. 1).

[4] = molecular target: T4, α1D receptors (Homo sapiens, UniProt P25100); experiment: Cell proliferation in vitro, DU-145 cells stimulated with phenylephrine (MTT); format: cell-based; conditions: 48 h
T4 construct: endogenous in cells; host or cells: DU-145
T4 sequence (P25100 1-572): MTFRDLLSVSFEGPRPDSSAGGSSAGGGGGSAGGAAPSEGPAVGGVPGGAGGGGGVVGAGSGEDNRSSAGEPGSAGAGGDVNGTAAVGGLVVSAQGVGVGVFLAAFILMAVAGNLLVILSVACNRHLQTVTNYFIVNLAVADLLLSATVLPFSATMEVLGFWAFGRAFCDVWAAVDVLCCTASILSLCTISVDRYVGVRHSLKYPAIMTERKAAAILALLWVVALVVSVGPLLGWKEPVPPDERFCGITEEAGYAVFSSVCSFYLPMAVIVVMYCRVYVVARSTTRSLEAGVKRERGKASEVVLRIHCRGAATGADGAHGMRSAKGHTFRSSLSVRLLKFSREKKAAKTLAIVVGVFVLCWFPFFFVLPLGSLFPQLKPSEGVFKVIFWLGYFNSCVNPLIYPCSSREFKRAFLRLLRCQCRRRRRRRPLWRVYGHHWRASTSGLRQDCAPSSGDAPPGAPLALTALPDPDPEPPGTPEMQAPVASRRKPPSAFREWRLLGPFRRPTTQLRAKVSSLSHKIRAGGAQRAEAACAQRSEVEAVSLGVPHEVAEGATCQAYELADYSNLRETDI
Method: as §1

[5] = molecular target: T5, α2A receptors (Rattus norvegicus, UniProt P22909); experiment: Binding of [3H]RX821002 to α2A receptors (rat cortex membranes); conditions: saturation assay
T5 construct: Membrane preparations of rat cortex as described previously in the literature were performed; from tissue; host or cells: rat cortex membranes
T5 sequence (P22909 1-465): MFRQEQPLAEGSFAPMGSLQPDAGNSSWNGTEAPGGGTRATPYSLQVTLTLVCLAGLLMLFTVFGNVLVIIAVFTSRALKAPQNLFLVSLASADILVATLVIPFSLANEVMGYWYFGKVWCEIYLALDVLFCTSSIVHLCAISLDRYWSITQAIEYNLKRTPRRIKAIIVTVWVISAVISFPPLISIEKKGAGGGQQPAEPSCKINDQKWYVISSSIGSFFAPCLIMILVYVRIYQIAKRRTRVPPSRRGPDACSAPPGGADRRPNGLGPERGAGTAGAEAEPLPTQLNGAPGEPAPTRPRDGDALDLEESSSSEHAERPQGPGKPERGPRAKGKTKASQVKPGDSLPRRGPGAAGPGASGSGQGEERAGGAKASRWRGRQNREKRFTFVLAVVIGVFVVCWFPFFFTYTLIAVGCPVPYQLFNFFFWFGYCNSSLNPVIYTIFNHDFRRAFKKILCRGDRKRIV

[6] = tested on: prostate cells; conditions: DIZEYI et al. Prostate 59 (3): 328-336, 2004; cited from earlier work

Cl.NCCc1c[nH]c2ccc(O)cc12 [5-HT, 5-hydroxytryptamine hydrochloride]
Proliferation percentage in relation to basel (100%), 5-HT1A ([1]; DU-145, stimulus alone, 5-HT 1 μM): 137.1 ± 5.2%
pharmacological classification [2]: full antagonist

COc1ccccc1N1CCN(CCN2C(=O)CC3(CCCC3)CC2=O)CC1 [BMY7378, reference compound]
CR ± EPM [3]: 4.4 ± 0.8
Proliferation percentage in relation to basel (100%) in the presence of LDT's, α1D ([4]; DU-145, phenylephrine 3 μM + test substance 50 nM): 90.98 ± 11.7^a %

CNC[C@H](O)c1cccc(O)c1 [Phenylephrine, (R)-(−)-phenylephrine hydrochloride, reference compound]
Proliferation percentage in relation to basel (100%), α1D ([4]; DU-145, stimulus alone, phenylephrine 3 μM): 138.8 ± 2.6%

COC1(C2=NCCN2)COc2ccccc2O1 (centres unmarked) [[3H] RX821002]
Kd [5]: 2.05 ± 0.28 nM

COc1ccccc1N1CCN(CCN(C(=O)c2ccc(F)cc2)c2ccccn2)CC1 [p-MPPF, reference compound]
Proliferation percentage in relation to basel (100%) in the presence of LDT's, 5HT1A ([1]; DU-145, 5-HT 1 μM + test substance 50 nM): 88.9 ± 11.5^b %

CCOc1ccccc1OCCN[C@H](C)Cc1ccc(OC)c(S(N)(=O)=O)c1 [tamsulosin]
inhibition of cell proliferation [6]: does not inhibit cell proliferation
